According to ChEMBL document CHEMBL4190377, “Design of Aminopeptidase N Inhibitors as Anti-cancer Agents” (J Med Chem, 2018):
≈ marks a conversion by molar mass, not a printed value. Values belong to the molecule of their own block, whether it stands above or below them.

Columns and labels:
Aminopeptidase N [1] = biological target: T1, Aminopeptidase N (Homo sapiens, UniProt P15144)
Description: Inhibition of APN (unknown origin)

Aminopeptidase N [2] = biological target: T2, Aminopeptidase N (Sus scrofa, UniProt P15145); assay: Inhibition of APN in porcine kidney using Ala-betaNA as substrate preincubated for 10 mins followed by substrate addition measured after 30 mins by fluorescence spectrofluorometric method
T2 sequence (P15145 whole entry): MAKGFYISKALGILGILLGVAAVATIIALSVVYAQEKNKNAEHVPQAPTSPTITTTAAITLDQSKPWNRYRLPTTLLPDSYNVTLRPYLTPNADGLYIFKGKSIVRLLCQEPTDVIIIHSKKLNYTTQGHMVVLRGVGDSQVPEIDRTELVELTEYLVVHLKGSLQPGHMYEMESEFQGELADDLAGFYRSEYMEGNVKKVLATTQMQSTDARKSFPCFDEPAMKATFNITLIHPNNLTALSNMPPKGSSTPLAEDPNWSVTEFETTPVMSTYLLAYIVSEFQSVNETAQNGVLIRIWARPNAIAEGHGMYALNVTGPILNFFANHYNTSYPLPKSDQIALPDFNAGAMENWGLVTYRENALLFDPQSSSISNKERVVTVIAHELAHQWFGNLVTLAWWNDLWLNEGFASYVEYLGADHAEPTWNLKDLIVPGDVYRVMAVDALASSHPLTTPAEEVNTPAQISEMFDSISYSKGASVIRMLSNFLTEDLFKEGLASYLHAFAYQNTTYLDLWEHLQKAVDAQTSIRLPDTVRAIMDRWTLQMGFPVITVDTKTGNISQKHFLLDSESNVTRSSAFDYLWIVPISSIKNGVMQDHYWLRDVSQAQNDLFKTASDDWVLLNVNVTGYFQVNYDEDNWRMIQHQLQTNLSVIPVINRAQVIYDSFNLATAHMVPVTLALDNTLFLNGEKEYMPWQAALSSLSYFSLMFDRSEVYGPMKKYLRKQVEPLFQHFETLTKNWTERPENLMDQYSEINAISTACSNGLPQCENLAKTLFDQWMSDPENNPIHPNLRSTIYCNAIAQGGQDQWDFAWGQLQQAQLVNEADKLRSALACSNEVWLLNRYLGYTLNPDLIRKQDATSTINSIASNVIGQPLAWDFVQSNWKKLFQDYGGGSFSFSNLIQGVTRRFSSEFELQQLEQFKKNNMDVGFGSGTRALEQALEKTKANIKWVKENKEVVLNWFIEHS

Glutamyl aminopeptidase [3] = biological target: T3, Glutamyl aminopeptidase (Homo sapiens, UniProt Q07075); assay: Inhibition of APA (unknown origin) using GlubetaNA as substrate after 30 mins
T3 sequence (Q07075 whole entry): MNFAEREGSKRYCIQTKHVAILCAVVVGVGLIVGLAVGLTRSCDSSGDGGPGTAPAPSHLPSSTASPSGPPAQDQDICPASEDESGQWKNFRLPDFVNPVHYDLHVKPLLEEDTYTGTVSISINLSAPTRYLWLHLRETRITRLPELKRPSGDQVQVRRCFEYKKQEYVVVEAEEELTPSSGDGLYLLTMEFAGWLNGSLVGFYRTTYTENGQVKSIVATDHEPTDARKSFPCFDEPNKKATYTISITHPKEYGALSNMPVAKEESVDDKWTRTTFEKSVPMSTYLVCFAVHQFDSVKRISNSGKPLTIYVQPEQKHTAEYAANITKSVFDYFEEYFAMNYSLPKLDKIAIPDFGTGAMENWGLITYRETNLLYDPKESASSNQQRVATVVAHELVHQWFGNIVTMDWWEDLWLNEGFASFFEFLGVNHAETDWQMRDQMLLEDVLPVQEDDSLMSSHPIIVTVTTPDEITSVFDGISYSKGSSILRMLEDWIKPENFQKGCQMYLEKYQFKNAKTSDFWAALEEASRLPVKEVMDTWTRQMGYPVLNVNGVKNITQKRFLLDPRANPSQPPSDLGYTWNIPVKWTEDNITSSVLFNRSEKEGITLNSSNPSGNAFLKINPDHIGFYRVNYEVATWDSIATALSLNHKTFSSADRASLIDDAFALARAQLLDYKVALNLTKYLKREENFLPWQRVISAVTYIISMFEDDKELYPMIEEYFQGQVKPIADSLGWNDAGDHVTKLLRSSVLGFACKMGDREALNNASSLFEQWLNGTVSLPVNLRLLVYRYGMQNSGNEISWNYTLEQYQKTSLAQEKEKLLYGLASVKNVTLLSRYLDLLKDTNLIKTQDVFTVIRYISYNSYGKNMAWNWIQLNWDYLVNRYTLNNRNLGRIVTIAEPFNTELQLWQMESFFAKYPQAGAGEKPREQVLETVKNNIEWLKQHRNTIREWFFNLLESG

Aminopeptidase N [4] = biological target: T2, Aminopeptidase N; assay: Inhibition of APN in porcine kidney microsomes using L-leucine-p-nitroanilide as substrate preincubated for 30 mins followed by substrate addition measured after 15 mins by UV-visible spectrophotometric method
Aminopeptidase N [5] = biological target: T2, Aminopeptidase N; assay: Inhibition of pig APN
[6] = biological target: T4, Leukotriene A-4 hydrolase (Homo sapiens, UniProt P09960); assay: Inhibition of full-length recombinant C-terminal FLAG-tagged human leukotriene A4 hydrolase expressed in baculovirus-infected insect cells using Arg-AMC as substrate after 1 hr by fluorescence assay
T4 sequence (P09960 whole entry): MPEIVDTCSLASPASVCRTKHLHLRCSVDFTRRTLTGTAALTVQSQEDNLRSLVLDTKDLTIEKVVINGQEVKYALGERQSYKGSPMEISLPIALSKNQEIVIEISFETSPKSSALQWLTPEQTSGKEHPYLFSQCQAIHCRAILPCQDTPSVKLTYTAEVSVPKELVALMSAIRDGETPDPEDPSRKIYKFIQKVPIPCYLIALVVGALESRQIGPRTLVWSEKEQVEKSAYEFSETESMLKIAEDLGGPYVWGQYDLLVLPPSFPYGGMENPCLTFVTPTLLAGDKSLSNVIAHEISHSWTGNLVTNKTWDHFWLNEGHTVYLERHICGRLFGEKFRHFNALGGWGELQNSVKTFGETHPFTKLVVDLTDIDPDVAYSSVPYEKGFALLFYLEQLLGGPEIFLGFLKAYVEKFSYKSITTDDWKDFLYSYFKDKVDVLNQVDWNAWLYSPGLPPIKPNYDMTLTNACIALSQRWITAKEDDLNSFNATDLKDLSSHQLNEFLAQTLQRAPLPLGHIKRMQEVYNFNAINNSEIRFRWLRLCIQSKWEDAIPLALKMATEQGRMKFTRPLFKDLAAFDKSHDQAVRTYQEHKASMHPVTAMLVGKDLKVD

Cytosol aminopeptidase = biological target: T5, Cytosol aminopeptidase (Sus scrofa, UniProt P28839); assay: Inhibition of porcine kidney leucine aminopeptidase using LGG as substrate after 90 mins
T5 sequence (P28839 whole entry): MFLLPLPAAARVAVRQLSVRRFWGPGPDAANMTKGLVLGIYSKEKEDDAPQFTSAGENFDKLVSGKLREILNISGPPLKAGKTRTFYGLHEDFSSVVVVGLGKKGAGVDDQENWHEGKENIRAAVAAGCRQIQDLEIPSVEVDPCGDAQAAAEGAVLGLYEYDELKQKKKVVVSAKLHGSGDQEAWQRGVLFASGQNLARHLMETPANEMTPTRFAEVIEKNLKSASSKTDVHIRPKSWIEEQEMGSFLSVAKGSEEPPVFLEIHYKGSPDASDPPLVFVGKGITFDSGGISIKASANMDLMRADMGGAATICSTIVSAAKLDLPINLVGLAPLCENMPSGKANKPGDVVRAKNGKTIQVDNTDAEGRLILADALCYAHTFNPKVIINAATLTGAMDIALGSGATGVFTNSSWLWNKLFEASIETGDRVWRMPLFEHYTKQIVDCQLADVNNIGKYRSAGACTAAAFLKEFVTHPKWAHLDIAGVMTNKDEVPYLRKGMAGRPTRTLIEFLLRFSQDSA

MDA-MB-231 = assay: Antiproliferative activity against human MDA-MB-231 cells after 48 hrs by MTT assay; type: functional, cell-based; settings: MDA-MB-231, 48 h
A549 = assay: Antiproliferative activity against human A549 cells over-expressing APN after 48 hrs by MTT assay; type: functional, cell-based; settings: A549, 48 h
[7] = Antiproliferative activity against human ES2 cells over-expressing APN after 48 hrs by MTT assay; type: functional, cell-based; settings: ES-2, 48 h
[8] = Solubility in PBS; type: physicochemical
Aminopeptidase N [9] = biological target: T2, Aminopeptidase N; assay: Inhibition of APN in porcine kidney microsomes using L-leucine-p-nitroanilide as substrate preincubated for 30 mins followed by substrate addition by UV-visible spectrophotometric method
Aminopeptidase N [10] = biological target: T2, Aminopeptidase N; assay: Inhibition of APN in porcine kidney using Ala-p-NA as substrate
Glutamyl aminopeptidase [11] = biological target: T3, Glutamyl aminopeptidase; assay: Inhibition of APA (unknown origin) using GluNA as substrate
HL-60 [12] = assay: Antiproliferative activity against human HL60 cells after 72 hrs by MTT assay; type: functional, cell-based; settings: HL-60, 72 h
Aminopeptidase N [13] = biological target: T1, Aminopeptidase N; assay: Competitive inhibition of aminopeptidase-M (unknown origin)
Leucine aminopeptidase = biological target: T6, Leucine aminopeptidase (Sus scrofa, UniProt Q29571); assay: Competitive inhibition of LAP in porcine kidney microsomes
T6 sequence (Q29571 whole entry): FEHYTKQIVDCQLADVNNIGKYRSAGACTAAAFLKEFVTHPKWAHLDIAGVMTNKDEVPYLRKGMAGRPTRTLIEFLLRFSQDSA

Mus musculus = assay: Increase in plasma vasopressin release in mouse at 100 ug administered as single dose by RIA; type: functional
Aminopeptidase B = biological target: T7, Aminopeptidase B (Rattus norvegicus, UniProt O09175); assay: Inhibition of APB in rat testis using ArgbetaNA as substrate
T7 sequence (O09175 whole entry): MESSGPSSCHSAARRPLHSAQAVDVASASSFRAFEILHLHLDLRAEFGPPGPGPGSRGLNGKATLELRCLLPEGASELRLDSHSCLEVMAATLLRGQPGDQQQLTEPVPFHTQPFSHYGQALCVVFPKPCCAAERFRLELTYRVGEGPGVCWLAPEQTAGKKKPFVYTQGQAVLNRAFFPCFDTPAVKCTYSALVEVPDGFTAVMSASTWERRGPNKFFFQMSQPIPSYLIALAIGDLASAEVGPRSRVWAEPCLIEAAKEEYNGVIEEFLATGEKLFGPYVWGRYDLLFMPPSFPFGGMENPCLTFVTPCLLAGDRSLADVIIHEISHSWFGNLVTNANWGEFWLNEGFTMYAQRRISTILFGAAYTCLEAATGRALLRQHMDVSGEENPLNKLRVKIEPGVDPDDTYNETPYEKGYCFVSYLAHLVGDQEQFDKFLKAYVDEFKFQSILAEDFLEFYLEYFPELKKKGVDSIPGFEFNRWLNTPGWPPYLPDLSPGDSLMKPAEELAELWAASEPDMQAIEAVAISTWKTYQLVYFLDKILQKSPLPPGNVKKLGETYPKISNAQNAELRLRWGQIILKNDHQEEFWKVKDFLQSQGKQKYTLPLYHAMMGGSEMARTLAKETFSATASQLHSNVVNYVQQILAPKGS

[14] = Selectivity ratio of IC50 for APN (unknown origin) to IC50 for porcine kidney leucine aminopeptidase
[15] = biological target: T8, Cytosol aminopeptidase (Sus scrofa) (UniProt P28839); assay: Potency index, ratio of bestatin IC50 to compound IC50 for porcine kidney leucine aminopeptidase
T8 sequence (whole entry): T5 sequence (P28839 whole entry)

HL-60 [16] = assay: Antiproliferative activity against human HL60 cells after 48 hrs by MTT assay; type: functional, cell-based; settings: HL-60, 48 h
[17] = biological target: 72 kDa type IV collagenase (Homo sapiens, UniProt P08253); assay: Inhibition of recombinant human MMP2 expressed in Escherichia coli preincubated for 30 mins followed by succinylated gelatin substrate addition measured after 60 mins
Sequence of 72 kDa type IV collagenase (P08253 whole entry): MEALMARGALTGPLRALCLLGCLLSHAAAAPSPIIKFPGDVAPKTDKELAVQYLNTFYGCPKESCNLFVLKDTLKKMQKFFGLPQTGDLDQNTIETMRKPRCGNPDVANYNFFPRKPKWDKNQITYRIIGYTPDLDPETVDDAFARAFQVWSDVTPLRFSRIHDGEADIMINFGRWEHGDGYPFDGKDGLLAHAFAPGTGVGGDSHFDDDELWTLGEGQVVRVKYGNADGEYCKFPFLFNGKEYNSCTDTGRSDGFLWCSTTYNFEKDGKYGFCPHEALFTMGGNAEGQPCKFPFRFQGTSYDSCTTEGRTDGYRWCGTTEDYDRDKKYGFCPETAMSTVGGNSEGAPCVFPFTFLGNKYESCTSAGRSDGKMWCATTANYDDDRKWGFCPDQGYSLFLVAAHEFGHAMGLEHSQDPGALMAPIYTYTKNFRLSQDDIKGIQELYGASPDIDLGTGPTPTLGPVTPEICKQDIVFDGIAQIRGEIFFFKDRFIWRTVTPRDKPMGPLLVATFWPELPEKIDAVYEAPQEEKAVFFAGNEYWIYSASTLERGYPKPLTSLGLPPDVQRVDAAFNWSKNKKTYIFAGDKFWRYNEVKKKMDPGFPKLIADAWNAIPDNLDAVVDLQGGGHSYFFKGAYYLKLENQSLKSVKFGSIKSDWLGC

SK-OV-3 = assay: Antiproliferative activity against human SKOV3 cells after 48 hrs by MTT assay; type: functional, cell-based; settings: SK-OV-3, 48 h

T1 sequence (P15144 whole entry): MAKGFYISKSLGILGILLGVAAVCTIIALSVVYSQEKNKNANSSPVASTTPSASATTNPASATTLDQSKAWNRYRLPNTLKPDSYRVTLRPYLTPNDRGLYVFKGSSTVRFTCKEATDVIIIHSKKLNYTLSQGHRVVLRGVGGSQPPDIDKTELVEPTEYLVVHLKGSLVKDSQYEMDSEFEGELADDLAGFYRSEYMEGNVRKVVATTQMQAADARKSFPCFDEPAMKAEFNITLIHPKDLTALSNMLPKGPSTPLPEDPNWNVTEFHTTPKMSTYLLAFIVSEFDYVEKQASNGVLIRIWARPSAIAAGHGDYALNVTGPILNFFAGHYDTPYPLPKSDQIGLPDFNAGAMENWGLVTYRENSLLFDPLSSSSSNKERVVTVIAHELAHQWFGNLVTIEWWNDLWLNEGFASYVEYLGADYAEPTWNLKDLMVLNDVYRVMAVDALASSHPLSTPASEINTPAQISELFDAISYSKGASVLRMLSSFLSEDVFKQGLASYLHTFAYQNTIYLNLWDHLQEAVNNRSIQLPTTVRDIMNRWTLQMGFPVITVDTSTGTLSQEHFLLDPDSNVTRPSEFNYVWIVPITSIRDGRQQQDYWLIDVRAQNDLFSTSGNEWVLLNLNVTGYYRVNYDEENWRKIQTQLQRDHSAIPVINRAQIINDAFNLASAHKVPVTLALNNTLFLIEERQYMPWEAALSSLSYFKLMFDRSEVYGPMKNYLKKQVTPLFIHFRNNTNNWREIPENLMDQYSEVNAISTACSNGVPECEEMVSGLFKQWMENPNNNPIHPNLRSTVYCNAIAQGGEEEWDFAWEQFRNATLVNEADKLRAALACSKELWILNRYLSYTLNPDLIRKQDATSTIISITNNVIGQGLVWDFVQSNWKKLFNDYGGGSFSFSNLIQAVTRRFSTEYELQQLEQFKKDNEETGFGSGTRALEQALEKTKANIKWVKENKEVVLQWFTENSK

SMILES: CC1(C)OB(C(N)Cc2ccccc2)OC1(C)C (stereo not drawn)
- IC50 (Aminopeptidase N [1]): 20 nM

SMILES: Cc1ccc(C(=O)NN/C(=N/S(=O)(=O)c2ccc(-n3nc(C(F)(F)F)cc3-c3cccs3)cc2)N2CCCC2)cc1
- Ki (Aminopeptidase N [5]): 1950 nM

SMILES: NC1COc2ccccc2CC1=O (stereo not drawn)
- Ki (Aminopeptidase N [5]): 1000 nM

SMILES: N#Cc1cc(Cc2ccc3c(ccc4ccccc43)c2C#N)cc2c1ccc1ccccc12
- Ki (Aminopeptidase N [5]): 2900 nM

SMILES: C(=C1/c2ccccc2-c2c1ccc1ccccc21)/c1cc2c3c(cccc3c1)-c1ccccc1-2
- Ki (Aminopeptidase N [5]): 1630 nM

SMILES: CC(C)CC(N)B1OC(C)(C)C(C)(C)O1 (stereo not drawn)
- IC50 (Aminopeptidase N [1]): 25 nM

SMILES: CSCCC(N)CS (stereo not drawn)
- Activity (Mus musculus): >220%
- Ki (Glutamyl aminopeptidase [3]): 17200 nM
- Ki (Aminopeptidase B): 1000 nM

SMILES: CC(N)B1OC(C)(C)C(C)(C)O1 (stereo not drawn)
- IC50 (Aminopeptidase N [1]): 40 nM

Further lines, with some results ahead:

- Ki (Aminopeptidase N [2]): 120 nM
- Ki (Glutamyl aminopeptidase [3]): 13 nM
SMILES: CC[C@H](C)[C@H](NC(=O)C(S)C(N)CCC(=O)O)C(=O)N[C@@H](CC(=O)O)C(=O)O (stereo partly drawn)

- IC50 (Aminopeptidase N [4]): 2510 nM
SMILES: CC(C)C[C@@H](NC(=O)[C@H](Cc1ccc(O)cc1)NC(=O)[C@@H](O)CN)C(=O)O

- IC50 [6]: 8 nM
- IC50 (Cytosol aminopeptidase): 30 nM
SMILES: CC(C)C[C@H](C(=O)N[C@H](C(=O)O)c1ccccc1)[C@H](O)C(=O)NO

- IC50 (MDA-MB-231): 260000 nM
- IC50 (A549): 36000 nM
- solubility [8]: 85.2 mM (≈ 41.3 mg/mL)
- IC50 (Aminopeptidase N [9]): 7200 nM
SMILES: CC(C)CC(NC(=O)C(O)C(N)Cc1ccccc1)C(=O)NC(CO)C(=O)NCc1ccccc1 (stereo not drawn)
- IC50 [7]: 12600 nM

- Ki (Aminopeptidase N [10]): 0.6 nM
- Ki (Glutamyl aminopeptidase [11]): 130 nM
SMILES: CC(N)P(=O)(O)C[C@@H](Cc1ccccc1)C(=O)N[C@@](C)(Cc1ccccc1)C(=O)O (stereo partly drawn)

- IC50 (HL-60 [12]): 1970 nM
- IC50 (Aminopeptidase N [9]): 5000 nM
SMILES: Cc1ccc(NC(=O)CN2C(=O)CC[C@H](NC(=O)C(N)Cc3ccccc3)C2=O)c(C)c1 (stereo partly drawn)

- IC50 (Aminopeptidase N [13]): 400 nM
- Ki (Aminopeptidase N [13]): 170 nM
SMILES: CCCCC[C@H](CC(=O)NO)C(=O)N[C@H](C(=O)N1CCC[C@H]1CO)C(C)C [ACTINONIN]

- Ki (Aminopeptidase N [10]): 1.5 nM
- Ki (Glutamyl aminopeptidase [11]): 40000 nM
SMILES: C[C@@](Cc1ccccc1)(NC(=O)[C@H](Cc1ccccc1)CP(=O)(O)C(N)Cc1ccccc1)C(=O)O (stereo partly drawn)

- Ki (Leucine aminopeptidase): 22 nM
SMILES: CC(C)C[C@@H](N)CS

- solubility [8]: 35.7 mM (≈ 11 mg/mL)
SMILES: CC(C)C[C@H](NC(=O)[C@@H](O)[C@H](N)Cc1ccccc1)C(=O)O [UBENIMEX]

- Ratio IC50 [14]: 2
- IC50 (Aminopeptidase N [1]): 220 nM
- Ratio IC50 [15]: 300
- IC50 (Cytosol aminopeptidase): 100 nM
SMILES: CC(C)C[C@H](C(=O)N[C@H](C(=O)OC1CCCC1)c1ccccc1)[C@H](O)C(=O)NO

- IC50 (Aminopeptidase N [4]): 12200 nM
- IC50 (HL-60 [16]): 170 nM
- IC50 [17]: 203000 nM
- IC50 (SK-OV-3): 380 nM
SMILES: CC(C)C[C@@H](NC(=O)[C@H](Cc1ccccc1)NC(=O)[C@@H](O)CN)C(=O)O
